Laboratory results from ChEMBL document CHEMBL5143725, “Optimization of TEAD P-Site Binding Fragment Hit into In Vivo Active Lead MSC-4106” (J Med Chem, 2022).
Calls of active or inactive are those of the source. The calls are words filed in the database; no cut-off is given here.

Assays:
[1] = biological target: T1, Transcriptional enhancer factor TEF-1 (Homo sapiens, UniProt P28347); assay: Inhibition of pSF-CMV-P-FLAG tagged human TEAD1 palmitoylation transfected in HEK293 cells at 10 uM incubated for 6 hrs by Western blot analysis relative to control; type: cell-based
[2] = Inhibition of YAP/TAZ-TEAD interaction in human SK-HEP1 cells incubated for 24 hrs by luciferase reporter gene assay; type: cell-based
[3] = Inhibition of cysteine-rich angiogenic inducer 61 expression in human NCI-H226 cells incubated for 96 hrs by ELISA method; settings: NCI-H226, 96 h
[4] = biological target: T2, Transcriptional enhancer factor TEF-5 (Homo sapiens, UniProt Q99594); assay: Inhibition of pSF-CMV-P-FLAG tagged human TEAD3 palmitoylation transfected in HEK293 cells at 1 uM incubated for 6 hrs by Western blot analysis relative to control; type: cell-based
[5] = biological target: T3, Transcriptional enhancer factor TEF-4 (Homo sapiens, UniProt Q15562); assay: Binding affinity to human TEAD2 (217 to 447 residues) expressed in Escherichia coli BL21 Star (DE3) by surface plasmon resonance assay
[6] = biological target: T2, Transcriptional enhancer factor TEF-5; assay: Inhibition of pSF-CMV-P-FLAG tagged human TEAD3 palmitoylation transfected in HEK293 cells at 10 uM incubated for 6 hrs by Western blot analysis relative to control; type: cell-based
[7] = Inhibition of connective tissue growth factor expression in human NCI-H226 cells incubated for 96 hrs by ELISA method; settings: NCI-H226, 96 h
[8] = Inhibition of cysteine-rich angiogenic inducer 61 expression in human SK-HEP1 cells incubated for 96 hrs by ELISA method; settings: SK-HEP1, 96 h
[9] = biological target: T1, Transcriptional enhancer factor TEF-1; assay: Binding affinity to human TEAD1 (209 to 426 residues) expressed in Escherichia coli BL21 Star (DE3) assessed as change in melting temperature incubated for 2 hrs by measuring tryptophane fluorescence by Nano Differential scanning fluorometry
SW-620 = assay: Cytotoxicity against YAP/TAZ knockout human SW620 cells assessed as cell viability measured for 4 days by celltiter-glo assay; settings: SW-620, 96 h
[10] = biological target: T3, Transcriptional enhancer factor TEF-4; assay: Binding affinity to human TEAD2 (217 to 447 residues) expressed in Escherichia coli BL21 Star (DE3) assessed as change in melting temperature incubated for 2 hrs by measuring tryptophane fluorescence by Nano Differential scanning fluorometry
[11] = biological target: T3, Transcriptional enhancer factor TEF-4; assay: Binding affinity to human TEAD2 (217 to 447 residues) expressed in Escherichia coli BL21 Star (DE3) assessed as change in melting temperature incubated for 2 hrs measuring scattering fluorescence by Nano Differential scanning fluorometry
[12] = biological target: T4, Transcriptional enhancer factor TEF-3 (Homo sapiens, UniProt Q15561); assay: Inhibition of pSF-CMV-P-FLAG tagged human TEAD4 palmitoylation transfected in HEK293 cells at 10 uM incubated for 6 hrs by Western blot analysis relative to control; type: cell-based
[13] = biological target: T2, Transcriptional enhancer factor TEF-5; assay: Binding affinity to human TEAD3 (216 to 435 residues) expressed in Escherichia coli BL21 Star (DE3) assessed as change in melting temperature incubated for 2 hrs by measuring tryptophane fluorescence by Nano Differential scanning fluorometry
[14] = biological target: T4, Transcriptional enhancer factor TEF-3; assay: Binding affinity to human TEAD4 (217 to 434 residues) expressed in Escherichia coli BL21 Star (DE3) assessed as change in melting temperature incubated for 2 hr by measuring tryptophane fluorescence by Nano Differential scanning fluorometry
[15] = biological target: T2, Transcriptional enhancer factor TEF-5; assay: Binding affinity to human TEAD3 (216 to 435 residues) expressed in Escherichia coli BL21 Star (DE3) by surface plasmon resonance assay
[16] = biological target: T4, Transcriptional enhancer factor TEF-3; assay: Binding affinity to human TEAD4 (217 to 434 residues) expressed in Escherichia coli BL21 Star (DE3) by surface plasmon resonance assay
[17] = biological target: T1, Transcriptional enhancer factor TEF-1; assay: Binding affinity to human TEAD1 (209 to 426 residues) expressed in Escherichia coli BL21 Star (DE3) by surface plasmon resonance assay
[18] = Inhibition of connective tissue growth factor expression in human SK-HEP1 cells incubated for 96 hrs by ELISA method; settings: SK-HEP1, 96 h
[19] = biological target: T3, Transcriptional enhancer factor TEF-4; assay: Inhibition of pSF-CMV-P-FLAG tagged human TEAD2 palmitoylation transfected in HEK293 cells at 10 uM incubated for 6 hrs by Western blot analysis relative to control; type: cell-based
[20] = biological target: T1, Transcriptional enhancer factor TEF-1; settings: HEK293, dose 100.0 nM, time 6.0 hrs
NCI-H226 = assay: In vivo antitumor activity against human NCI-H226 cells xenografted in mouse model assessed as tumor growth inhibition at 100 mg/kg, po qd measured after 32 days; type: functional, organism-based; settings: time 32.0 day

T1 sequence (P28347 whole entry): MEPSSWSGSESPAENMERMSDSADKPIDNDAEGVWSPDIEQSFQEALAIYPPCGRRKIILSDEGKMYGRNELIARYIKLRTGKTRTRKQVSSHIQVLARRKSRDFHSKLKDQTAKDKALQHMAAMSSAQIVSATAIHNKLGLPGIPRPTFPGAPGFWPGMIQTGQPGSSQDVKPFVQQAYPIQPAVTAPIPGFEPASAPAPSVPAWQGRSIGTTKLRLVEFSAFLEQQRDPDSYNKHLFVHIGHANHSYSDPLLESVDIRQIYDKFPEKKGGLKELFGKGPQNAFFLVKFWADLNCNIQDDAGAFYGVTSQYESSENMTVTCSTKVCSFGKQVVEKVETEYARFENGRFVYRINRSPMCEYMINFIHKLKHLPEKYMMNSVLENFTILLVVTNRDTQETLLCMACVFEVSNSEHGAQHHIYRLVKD
T2 sequence (Q99594 whole entry, the tested form may be a part): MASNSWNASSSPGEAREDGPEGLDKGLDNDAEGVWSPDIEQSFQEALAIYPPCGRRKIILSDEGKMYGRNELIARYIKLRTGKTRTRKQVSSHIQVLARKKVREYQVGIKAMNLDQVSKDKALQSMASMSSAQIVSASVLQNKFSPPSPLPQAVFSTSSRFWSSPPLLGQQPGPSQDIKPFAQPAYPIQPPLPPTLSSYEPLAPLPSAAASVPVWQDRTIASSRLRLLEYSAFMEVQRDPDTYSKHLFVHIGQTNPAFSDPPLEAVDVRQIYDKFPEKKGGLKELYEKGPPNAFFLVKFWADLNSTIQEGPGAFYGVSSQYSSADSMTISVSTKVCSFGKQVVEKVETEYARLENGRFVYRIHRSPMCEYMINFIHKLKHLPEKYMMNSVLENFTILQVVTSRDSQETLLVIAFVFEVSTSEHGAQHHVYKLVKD
T3 sequence (Q15562 whole entry, the tested form may be a part): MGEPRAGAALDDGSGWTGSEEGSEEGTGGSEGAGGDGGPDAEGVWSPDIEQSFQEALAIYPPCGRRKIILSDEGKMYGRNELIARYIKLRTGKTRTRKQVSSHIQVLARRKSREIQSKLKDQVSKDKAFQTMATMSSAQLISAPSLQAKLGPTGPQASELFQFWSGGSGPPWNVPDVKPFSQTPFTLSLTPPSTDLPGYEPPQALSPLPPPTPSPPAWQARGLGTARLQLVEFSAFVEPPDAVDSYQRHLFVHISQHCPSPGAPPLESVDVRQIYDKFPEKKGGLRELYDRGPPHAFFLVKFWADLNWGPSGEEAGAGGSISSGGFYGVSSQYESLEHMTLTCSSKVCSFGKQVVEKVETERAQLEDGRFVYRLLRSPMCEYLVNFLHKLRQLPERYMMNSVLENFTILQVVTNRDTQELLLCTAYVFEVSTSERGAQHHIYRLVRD
T4 sequence (Q15561 whole entry, the tested form may be a part): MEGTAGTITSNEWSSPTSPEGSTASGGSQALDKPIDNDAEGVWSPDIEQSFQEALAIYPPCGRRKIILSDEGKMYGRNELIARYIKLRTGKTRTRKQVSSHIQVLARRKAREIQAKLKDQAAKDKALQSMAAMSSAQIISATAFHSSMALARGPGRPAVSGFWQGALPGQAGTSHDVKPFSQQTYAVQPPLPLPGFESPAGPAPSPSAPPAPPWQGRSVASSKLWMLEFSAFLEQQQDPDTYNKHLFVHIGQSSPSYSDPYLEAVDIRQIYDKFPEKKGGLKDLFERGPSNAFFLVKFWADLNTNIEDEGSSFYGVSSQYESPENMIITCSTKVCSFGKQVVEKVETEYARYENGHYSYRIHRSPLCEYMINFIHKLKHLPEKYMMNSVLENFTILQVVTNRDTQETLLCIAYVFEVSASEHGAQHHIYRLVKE

inhibition [1]: 90%
IC50 [2]: 4 nM
IC50 [3]: 13 nM
inhibition [4]: 3.8%
Kd [5]: 4600 nM
inhibition [6]: 81%
IC50 [8]: 24 nM
ΔTm [9]: 13.4 °C
ΔTm [10]: -3.7 °C
ΔTm [11]: 3.7 °C
inhibition [12]: 12%
ΔTm [13]: 5.1 °C
ΔTm [14]: 0.4 °C
Kd [15]: 1400 nM
Kd [16]: 5400 nM
Kd [17]: 120 nM
inhibition [19]: 24%
inhibition [20]: 55.7%
SMILES: Cn1cc2c3cc(C(=O)O)ccc3n(-c3ccc(C(F)(F)F)cc3)c2n1
IC50 [7]: 11 nM
IC50 (SW-620): > 30000 nM
IC50 [18]: 10 nM
Activity (NCI-H226): Active
